Patent US20050107611A1, “Pyrazolyl-substituted triazoloquinoxalines” (priority 2001, published 2005)
Where two headings read alike, the source gives them in different places.

Legend:
[1] = biological target: T1, A1 adenosine receptor (Rattus norvegicus, UniProt P25099); test: Radioligand binding with [3H]CCPA on A1-adenosine receptors, rat brain cortex membranes; set-up: tissue Pel Freez Company (Rogers, Ark., USA); host or cells: rat brain cerebral cortex membranes; details: for Ki: Table 2, [3H]CCPA, read-out: A1 K1
T1 sequence (P25099 1-326): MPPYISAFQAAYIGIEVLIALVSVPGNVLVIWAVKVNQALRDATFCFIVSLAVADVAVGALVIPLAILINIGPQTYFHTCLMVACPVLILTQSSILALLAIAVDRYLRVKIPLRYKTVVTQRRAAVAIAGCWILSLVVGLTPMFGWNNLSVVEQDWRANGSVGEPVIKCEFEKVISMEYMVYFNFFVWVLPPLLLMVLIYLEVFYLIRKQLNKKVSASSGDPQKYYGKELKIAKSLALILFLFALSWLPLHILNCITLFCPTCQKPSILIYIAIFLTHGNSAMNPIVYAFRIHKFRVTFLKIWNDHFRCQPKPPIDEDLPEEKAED
Excerpt: (§1) The data of the biological tests that are cited below results from radioligand-binding assays on A1, A2A, A2B and A3 adenosine receptors (ARs).
(§2) The following selective radioligands are used in the biological tests: • [^3H]CCPA (for A1 ARs) [Klotz et al., Naunyn-Schmiedeberg's Arch. Pharmacol., 340, 679 (1989)] • [^3]MSX-2 (for A2A ARs) [Muiller et al., Eur. J. Pharm. Sci., 10, 259 (2000)] • [^3H]ZM241385 (for A2B ARs_[X.-D. Ji, K. A. Jacobson, Drug Des. Discov., 16, 217 (1999)] • [^3H]PSB-11 (new antagonistic radioligand for human A3 ARs) [M. Dieckmann, M. Thorand, V. Ozola, C. E. Muiller, in Vorbereitung [Preparation] (2001)]. • [^125I]AB-MECA (for rat-A3 ARs) [Olah et al., Mol. Pharmacol., 45, 978 (1994)]. Description of the Assays That are Used for Testing Substances Production of Tissue Preparations Made from Rat Brains
For the preparations, deep-frozen rat brains of the Pel Freez Company (Rogers, Ark., USA) are used. The rat brains are thawed in 0.32 M saccharose solution, the cortex is cut off, and the striata are prepared outside.
The cell decomposing of the cerebral cortex is carried out with a glass-Teflon homogenizer (stages 5-6, 10 seconds) in 0.32 M saccharose solution. The membranes are purified over various centrifuging steps. With centrifuging at 600 g, 4° C., for 10 minutes, a large amount of cell debris is separated via the P1 fraction, and the supernatant (P2 fraction) is further worked up: in the subsequent three centrifuging steps (35,000 g; 4° C.; 60 minutes), a pellet is produced that is resuspended in 50 mmol of TRIS buffer, pH 7.4 with the Ultraturrax (stages 3-4, 3 seconds); the respective supernatant is discarded. The striata are added to cold TRIS buffer, homogenized with the Ultraturrax in stages 3 to 4-(3 seconds) and then centrifuged at 35,000 g, 4° C., for 20 minutes. The supernatant is discarded, and the pellet is resuspended in 50 mmol of TRIS buffer (50 mmol, pH 7.4). The washing process is repeated twice more. The membrane preparations are stored at −80° C. and are held for several months. The cerebral cortex membrane preparation is used for A1-radioligand binding studies, and the striatum is used for A2A-radiologiand binding studies.
(§3) The test substances are dissolved in DMSO to 10 mmol. The final concentration of DMSO in the assay is 2.5% for A1- and A2A-adenosine receptor assays and 1-2% for A2B- and A3-assays. Dilution series of the test substances are produced from the stock solution. Five to eight different test concentrations, which comprise 3 orders of magnitude (e.g., 1 nm to 1000 nm), are used.
Radioligand Binding Studies with [^3H]CCPA on A1-Adenosine Receptors:
The mixture is incubated for 90 minutes in an oscillating water bath at 23° C. Then, it is filtered off with a Brandel cell-harvester and washed twice more with ice-cooled TRIS buffer, 50 mmol, pH 7.4 (3 ml). The filter plates are conveyed in scintillation vials, doused with 2.5 ml of Ultima Gold Scintillation cocktail and incubated for at least 6 hours before they are measured in a scintillation counter.
(§4) The mean value is calculated from three independent experiments. IC50 and K, values are obtained from the Cheng-Prusoff equation, the concentration and the KD value of the radioligand. For calculation, the program GraphPadPrism™, Version 3.0 (GraphPad, San Diego, Calif., USA), was used.

[2] = biological target: T2, human A3 adenosine receptor (Homo sapiens, UniProt P0DMS8); test: Receptor binding assay with [3H]PSB-11 on recombinant A3-adenosine receptors expressed in CHO cells; details: for Ki: Table 2, [3H]PSB-11, read-out: A3 K1
T2 construct: expressed in transfected cells; host or cells: CHO cells
T2 sequence (P0DMS8 1-318): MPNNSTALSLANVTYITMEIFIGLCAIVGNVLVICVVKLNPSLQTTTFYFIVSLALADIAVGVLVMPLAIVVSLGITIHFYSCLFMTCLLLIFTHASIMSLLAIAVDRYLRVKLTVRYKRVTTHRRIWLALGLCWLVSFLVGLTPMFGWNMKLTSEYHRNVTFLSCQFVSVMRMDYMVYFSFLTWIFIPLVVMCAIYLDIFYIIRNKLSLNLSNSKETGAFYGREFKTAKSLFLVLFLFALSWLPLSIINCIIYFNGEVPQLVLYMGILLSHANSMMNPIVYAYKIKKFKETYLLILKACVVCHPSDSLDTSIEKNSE
Excerpt: as §1, §2
For CHO cells, which express the A3-adenosine receptor, the operating steps are also performed analogously to the A1-adenosine receptor-CHO culture. The medium is used as described above.
Preparation of Recombinant Human A3-Adenosine Receptors Expressed in CHO Cells for A3-Adenosine Receptor Binding Studies
2 to 3 ml of ice-cold TRIS buffer (pH 7.4; 50 mmol) is added to the tissue culture dishes. The cells are scraped off from the plates with a rubber scraper and collected in a beaker. The plates are rinsed with another 1 to 2 ml of TRIS buffer (pH 7.4; 50 mmol). The cell suspension is dispersed into centrifuge tubes and centrifuged at 4° C., 35,000 g, for 20 minutes. The supernatant is discarded, and the pellet is resuspended in TRIS buffer (pH 7.4; 50 mmol) with the homogenizer at the highest level for 3 to 4 seconds. This suspension is again centrifuged. The washing process is repeated another time. The pellet that is obtained is resuspended with the least possible TRIS buffer (pH 7.4; 50 mmol) and delivered in aliquots (0.25 ml and 0.5 ml).
as §3
Receptor Binding Assay with [^3H]PSB-11 on Recombinant A3-Adenosine Receptors Expressed in CHO Cells:
The assay is performed with […] according to the instructions under the receptor-binding assays with consideration for the above-listed amounts and solutions. The dilution in the assay is 1:50. The DMSO content is 2% here. The incubation at 23° C. in the oscillating water bath lasts for 45 minutes.
as §4

[3] = biological target: T1, A1 adenosine receptor; details: Table 1, literature values, cited from earlier work

Ki [1] [nM]	A3 % inhib. @ 1 μmol [2]	Ki [2] [nM]	Molecule	A1 % inhib. @ 10 μmol [1]	A1 % Inhibition @ 10 μmol ([3]; 10 μmol)	Ki ([3]; read-out: A1 K1) [nM]
900	–	1.9	COc1ccc2c(c1)nc(-c1cc(Cl)n[nH]1)c1nnc(Cc3cccs3)n12 [4-[3(5)-Chloro-1H-pyrazol-5(3)-yl]-7-methoxy-1-(2-thienylmethyl)-[1,2,4]triazolo[4,3-a]-quinoxaline]	–	–	–
320	(31%)	> 1000	Clc1cc(-c2nc3ccccc3n3c(-c4ccoc4)nnc23)n[nH]1 [Y = C-(3-Furyl), R5 = H, R6 = Cl]	–	–	–
210	–	86	Cn1nc(-c2nc3ccccc3n3c(Cc4cccs4)nnc23)cc1Cl [Y = C—CH2-(2-Thienyl), R5 = CH3, R6 = Cl, 4-(5-Chloro-1H-1-methyl-pyrazol-3-yl)-1-(2-thienylmethyl)-[1,2,4]triazolo[4,3-a]-quinoxaline]	–	–	–
> 10000	–	372	COc1ccc2c(c1)nc(-c1cc(Cl)[nH]n1)c1nncn12 [Y = C—H, R3 = OCH3, R5 = H, R6 = Cl, 4-[3(5)-Chloro-1H-pyrazol-5(3)-yl]-7-methoxy-[1,2,4]triazolo[4,3-a]-quinoxaline]	(13%)	–	–
670	(53%)	–	Clc1cc(-c2nc3ccccc3n3nnnc23)n[nH]1 [Y = N, R5 = H, R6 = Cl, 4-[3(5)-Chloro-1H-pyrazol-5(3)-yl]tetrazolo[1,5-a]quinoxaline]	–	–	–

Molecule	Ki [1] [nM]	A3 % inhib. @ 1 μmol [2]	Ki [2] [nM]	A1 % inhib. @ 10 μmol [1]	A1 % Inhibition @ 10 μmol ([3]; 10 μmol)	Ki ([3]; read-out: A1 K1) [nM]
4-(chloropyrazolyl)-1-(3-phenylpropyl)-[1,2,4-]triazolo[4,3-a]quinoxaline [Y = C—CH2—CH2—CH2-Ph, R5 = H, R6 = Cl]	6	(32%)	> 1000	–	–	–
Clc1cc(-c2nc3ccccc3n3cnnc23)[nH]n1 [Y = C—H, R5 = H, R6 = Cl]	> 10000	–	142	(35%)	(35%)	> 10000
